What was measured:
[1] = In vitro plasma protein binding in rabbit blood (rapid equilibrium dialysis, LC-MS/MS); type: in vitro ADME; details: nominal 0.2, 2 and 20 μg/mL, read-out: unbound free fraction
[2] = tested on: high fat diet (HFD) rabbit model of metabolic-associated steatohepatitis (MASH); assay: HFD rabbit study, prolonged 4-week treatment: fibrosis and inflammation markers mRNA expression; type: in vivo, New Zealand White rabbits; details: HFD rabbits, weeks 9–12, mean±SD, n=7
Protocol: After 1 week (W) of RD, the animals (n = 44) were randomly assigned to the following groups (Table 1B): • Control rabbits continued to receive a RD for 12 weeks and were treated with vehicle for 5 days a week (days 1–5, p.o.) during the last 4 weeks before culling (RD + 4W Veh group); • Rabbits received a HFD for 8 weeks and were culled (HFD 8W group); • Rabbits received a HFD for 12 weeks and were treated with vehicle for 5 days a week (days 1–5, p.o.) during the last 4 weeks before culling (HFD+4W Veh group); • Rabbits received a HFD for 12 weeks and were treated with GB1211 (0.3 mg/kg) for 5 days a week (days 1–5, p.o.) during the last 4 weeks before culling (HFD + 4W 0.3 mg group); • Rabbits received a HFD for 12 weeks and were treated with GB1211 (1.0 mg/kg) for 5 days a week (days 1–5, p.o.) during the last 4 weeks before culling (HFD + 4W 1.0 mg group); • Rabbits received a HFD for 12 weeks and were treated with GB1211 (5.0 mg/kg) for 5 days a week (days 1–5, p.o.) during the last 4 weeks before culling (HFD + 4W 5.0 mg group).
TRIzol reagent (Life Technologies, Paisley, United Kingdom) and/or RNeasy Mini Kit (Qiagen, Hilden, Germany) were used to isolate total RNA from rabbit liver specimens. RNA concentration and quality were measured using a Nanodrop ND-1000 (Thermo Fisher Scientific) at 260 nm and 280 nm. The OD 260/280 absorbance ratios were between 2.0 and 2.1 for all samples, to confirm RNA integrity and purification. cDNA synthesis was carried out using the iScript™ cDNA Synthesis Kit (Bio-Rad Laboratories, Hercules, CA), with 100 ng of mRNA in 20 µL reaction volume in accordance with the following protocol: 5 min at 25°C, 20 min at 46°C and 5 min at 85°C, followed by refrigeration at 4°C.
Semi-quantitative real-time RT-PCR (qRT-PCR) amplification and detection was performed with SsoAdvanced™ universal SYBR® Supermix and a CFX96 Two-Color Real-Time PCR Detection System (both Bio-Rad Laboratories) with the following thermal cycler conditions: 40 cycles at 95°C for 15 s and 60°C for 1 min. Specific PCR primers for rabbit target genes were designed on sequences available at the National Center for Biotechnology Information GenBank (http://www.ncbi.nlm.nih.gov) or Ensemble Genome (http://www.ensembl.org).
The 18S ribosomal RNA subunit was quantified with a predeveloped assay (Hs99999901_s1, Life Technologies) and used as the housekeeping gene for the relative quantitation of the target genes based on the comparative threshold cycle (Ct) 2^−ΔΔCt method ([Livak and Schmittgen, 2001]), with some modifications. In detail, we used the vehicle control groups as the calibrator in each analysis, so that the calculations would provide the fold-change of the other groups relative to controls.

OC[C@H]1O[C@H](Sc2cncc(Br)c2)[C@H](O)[C@@H](n2cc(-c3cc(F)c(F)c(F)c3)nn2)[C@H]1O [selvigaltin]
fraction unbound [1]: 0.141 | CD4 liver mRNA expression ([2]; 0.3 mg/kg p.o.): 1.96 ± 0.51 fold-change vs. RD+Veh | COL1A1 liver mRNA expression ([2]; 0.3 mg/kg p.o.): 45.14 ± 43.26 fold-change vs. RD+Veh | COL3A1 liver mRNA expression ([2]; 0.3 mg/kg p.o.): 12.38 ± 9.89 fold-change vs. RD+Veh | COX-2 liver mRNA expression ([2]; 0.3 mg/kg p.o.): 8.60 ± 4.94 fold-change vs. RD+Veh | EDN1 liver mRNA expression ([2]; 0.3 mg/kg p.o.): 1.08 ± 0.33 fold-change vs. RD+Veh | EDNRA liver mRNA expression ([2]; 0.3 mg/kg p.o.): 3.66 ± 2.05 fold-change vs. RD+Veh | EDNRB liver mRNA expression ([2]; 0.3 mg/kg p.o.): 1.60 ± 0.42 fold-change vs. RD+Veh | FN1 liver mRNA expression ([2]; 0.3 mg/kg p.o.): 1.79 ± 0.76 fold-change vs. RD+Veh | FOXP3 liver mRNA expression ([2]; 0.3 mg/kg p.o.): 2.85 ± 1.40 fold-change vs. RD+Veh | IL1β liver mRNA expression ([2]; 0.3 mg/kg p.o.): 1.33 ± 0.37 fold-change vs. RD+Veh | IL2 liver mRNA expression ([2]; 0.3 mg/kg p.o.): 2.98 ± 1.16 fold-change vs. RD+Veh | IL6 liver mRNA expression ([2]; 0.3 mg/kg p.o.): 2.43 ± 1.89 fold-change vs. RD+Veh | LGALS3 liver mRNA expression ([2]; 0.3 mg/kg p.o.): 63.90 ± 24.46 fold-change vs. RD+Veh | MCP1 liver mRNA expression ([2]; 0.3 mg/kg p.o.): 7.70 ± 6.93 fold-change vs. RD+Veh | PAI-1 liver mRNA expression ([2]; 0.3 mg/kg p.o.): 4.91 ± 1.83 fold-change vs. RD+Veh | RAGE liver mRNA expression ([2]; 0.3 mg/kg p.o.): 1.99 ± 1.10 fold-change vs. RD+Veh | SNAI1 liver mRNA expression ([2]; 0.3 mg/kg p.o.): 2.05 ± 2.05 fold-change vs. RD+Veh | SNAI2 liver mRNA expression ([2]; 0.3 mg/kg p.o.): 2.28 ± 1.03 fold-change vs. RD+Veh | TGFβ1 liver mRNA expression ([2]; 0.3 mg/kg p.o.): 4.06 ± 1.62 fold-change vs. RD+Veh | TGFβ3 liver mRNA expression ([2]; 0.3 mg/kg p.o.): 1.73 ± 0.80 fold-change vs. RD+Veh | TLR4 liver mRNA expression ([2]; 0.3 mg/kg p.o.): 3.89 ± 1.45 fold-change vs. RD+Veh | TNFα liver mRNA expression ([2]; 0.3 mg/kg p.o.): 4.39 ± 0.96 fold-change vs. RD+Veh | αSMA liver mRNA expression ([2]; 0.3 mg/kg p.o.): 4.64 ± 4.05 fold-change vs. RD+Veh | CD4 liver mRNA expression ([2]; 1.0 mg/kg p.o.): 1.33 ± 0.66 fold-change vs. RD+Veh | COL1A1 liver mRNA expression ([2]; 1.0 mg/kg p.o.): 9.00 ± 6.03 fold-change vs. RD+Veh | COL3A1 liver mRNA expression ([2]; 1.0 mg/kg p.o.): 3.49 ± 2.11 fold-change vs. RD+Veh | COX-2 liver mRNA expression ([2]; 1.0 mg/kg p.o.): 6.14 ± 3.84 fold-change vs. RD+Veh | EDN1 liver mRNA expression ([2]; 1.0 mg/kg p.o.): 0.99 ± 0.28 fold-change vs. RD+Veh | EDNRA liver mRNA expression ([2]; 1.0 mg/kg p.o.): 2.13 ± 1.20 fold-change vs. RD+Veh | EDNRB liver mRNA expression ([2]; 1.0 mg/kg p.o.): 1.58 ± 0.31 fold-change vs. RD+Veh | FN1 liver mRNA expression ([2]; 1.0 mg/kg p.o.): 1.06 ± 0.22 fold-change vs. RD+Veh | FOXP3 liver mRNA expression ([2]; 1.0 mg/kg p.o.): 1.39 ± 0.43 fold-change vs. RD+Veh | IL1β liver mRNA expression ([2]; 1.0 mg/kg p.o.): 1.18 ± 0.45 fold-change vs. RD+Veh | IL2 liver mRNA expression ([2]; 1.0 mg/kg p.o.): 1.85 ± 1.16 fold-change vs. RD+Veh | IL6 liver mRNA expression ([2]; 1.0 mg/kg p.o.): 0.58 ± 0.22 fold-change vs. RD+Veh | LGALS3 liver mRNA expression ([2]; 1.0 mg/kg p.o.): 50.04 ± 15.84 fold-change vs. RD+Veh | MCP1 liver mRNA expression ([2]; 1.0 mg/kg p.o.): 4.23 ± 1.50 fold-change vs. RD+Veh | PAI-1 liver mRNA expression ([2]; 1.0 mg/kg p.o.): 4.93 ± 2.25 fold-change vs. RD+Veh | RAGE liver mRNA expression ([2]; 1.0 mg/kg p.o.): 1.14 ± 0.36 fold-change vs. RD+Veh | SNAI1 liver mRNA expression ([2]; 1.0 mg/kg p.o.): 1.30 ± 1.21 fold-change vs. RD+Veh | SNAI2 liver mRNA expression ([2]; 1.0 mg/kg p.o.): 1.15 ± 0.42 fold-change vs. RD+Veh | TGFβ1 liver mRNA expression ([2]; 1.0 mg/kg p.o.): 2.87 ± 1.14 fold-change vs. RD+Veh | TGFβ3 liver mRNA expression ([2]; 1.0 mg/kg p.o.): 1.20 ± 0.54 fold-change vs. RD+Veh | TLR4 liver mRNA expression ([2]; 1.0 mg/kg p.o.): 3.63 ± 0.90 fold-change vs. RD+Veh | TNFα liver mRNA expression ([2]; 1.0 mg/kg p.o.): 3.67 ± 2.21 fold-change vs. RD+Veh | αSMA liver mRNA expression ([2]; 1.0 mg/kg p.o.): 1.75 ± 1.34 fold-change vs. RD+Veh | CD4 liver mRNA expression ([2]; 5.0 mg/kg p.o.): 2.60 ± 1.97 fold-change vs. RD+Veh | COL1A1 liver mRNA expression ([2]; 5.0 mg/kg p.o.): 25.20 ± 23.86 fold-change vs. RD+Veh | COL3A1 liver mRNA expression ([2]; 5.0 mg/kg p.o.): 7.26 ± 6.59 fold-change vs. RD+Veh | COX-2 liver mRNA expression ([2]; 5.0 mg/kg p.o.): 13.87 ± 22.12 fold-change vs. RD+Veh | EDN1 liver mRNA expression ([2]; 5.0 mg/kg p.o.): 1.09 ± 0.51 fold-change vs. RD+Veh | EDNRA liver mRNA expression ([2]; 5.0 mg/kg p.o.): 3.04 ± 2.38 fold-change vs. RD+Veh | EDNRB liver mRNA expression ([2]; 5.0 mg/kg p.o.): 2.49 ± 2.19 fold-change vs. RD+Veh | FN1 liver mRNA expression ([2]; 5.0 mg/kg p.o.): 1.51 ± 0.74 fold-change vs. RD+Veh | FOXP3 liver mRNA expression ([2]; 5.0 mg/kg p.o.): 3.57 ± 1.87 fold-change vs. RD+Veh | IL1β liver mRNA expression ([2]; 5.0 mg/kg p.o.): 1.32 ± 0.62 fold-change vs. RD+Veh | IL2 liver mRNA expression ([2]; 5.0 mg/kg p.o.): 3.33 ± 2.66 fold-change vs. RD+Veh | IL6 liver mRNA expression ([2]; 5.0 mg/kg p.o.): 1.59 ± 1.33 fold-change vs. RD+Veh | LGALS3 liver mRNA expression ([2]; 5.0 mg/kg p.o.): 67.63 ± 53.87 fold-change vs. RD+Veh | MCP1 liver mRNA expression ([2]; 5.0 mg/kg p.o.): 5.47 ± 2.52 fold-change vs. RD+Veh | PAI-1 liver mRNA expression ([2]; 5.0 mg/kg p.o.): 5.06 ± 3.07 fold-change vs. RD+Veh | RAGE liver mRNA expression ([2]; 5.0 mg/kg p.o.): 1.73 ± 0.67 fold-change vs. RD+Veh | SNAI1 liver mRNA expression ([2]; 5.0 mg/kg p.o.): 2.32 ± 1.38 fold-change vs. RD+Veh | SNAI2 liver mRNA expression ([2]; 5.0 mg/kg p.o.): 1.68 ± 0.79 fold-change vs. RD+Veh | TGFβ1 liver mRNA expression ([2]; 5.0 mg/kg p.o.): 3.96 ± 2.80 fold-change vs. RD+Veh | TGFβ3 liver mRNA expression ([2]; 5.0 mg/kg p.o.): 1.87 ± 0.71 fold-change vs. RD+Veh | TLR4 liver mRNA expression ([2]; 5.0 mg/kg p.o.): 3.90 ± 1.30 fold-change vs. RD+Veh | TNFα liver mRNA expression ([2]; 5.0 mg/kg p.o.): 3.80 ± 1.84 fold-change vs. RD+Veh | αSMA liver mRNA expression ([2]; 5.0 mg/kg p.o.): 3.17 ± 2.57 fold-change vs. RD+Veh
